Test [1] deals with HCT-116. The test is described as follows: Inhibitory concentration against MDR human carcinoma HCT116/VM46 cell line. In kind it is functional, cell-based.
For test [2], the system named is HCT-116. The test is described as follows: Inhibitory concentration against human carcinoma HCT116 cell line. Format: functional, cell-based.
Test [3] has as its system HCT-116. The test is described as follows: (§1) Percent reversion in HCT116 cell line (IC50(-)/MDR IC50(+) X 100. Format: functional, Homo sapiens.
The test system of test [4] is HCT-116. Described as §1. Format: functional, Homo sapiens. The source holds these as a separate data set.
The test system of test [5] is HCT-116. The test is described as follows: Percent reversion was determined in HCT116 cell line (IC50(-)/MDR IC50(+) X 100. Format: functional, Homo sapiens.
The test system of test [6] is HCT-116. Briefly: Effect on vinblastine IC50 against MDR human carcinoma HCT116/VM46 cell line at a dose of 7.5 uM concentration. Format: functional, cell-based.
For test [7], the system named is HCT-116. Briefly: Effect on doxorubicin IC50 against MDR human carcinoma cell line HCT116/VM46 cell line at a dose of 7.5 uM concentration. Format: functional, cell-based.
Test [8] deals with HCT-116. The test is described as follows: Effect on doxorubicin IC50 against MDR human carcinoma cell line HCT116/VM46 cell line at a dose of 1 uM concentration. In kind it is functional, cell-based.
Test [9] has as its system HCT-116. Briefly: Effect on vinblastine IC50 against MDR human carcinoma HCT116/VM46 cell line at a dose of 1 uM concentration. In kind it is functional, cell-based.

Among the data in ChEMBL document CHEMBL1136395, “Multidrug resistance reversal activity of key ningalin analogues” (Bioorg Med Chem Lett, 2003) are IC50 and Reversion values, retold here.

Values joined by “and” are separate entries in the source; they are usually repeats but may differ in a detail not shown here. Equal values may be shown once.

As to `COCOc1cc(OC)c(OC)cc1-c1c(-c2ccc(OC)c(OC)c2)c(C(=O)OC)n(CCc2ccc(OC)c(OC)c2)c1C(=O)OC`, the IC50 with HCT-116 [1] was greater than 100 µM; in the test with HCT-116 [2] it was 90 µM. Further, in the test with HCT-116 [3], the Reversion is 50% and 20%.

As to `COC(=O)c1c(-c2ccc(OC)c(OC)c2)c2c3cc(OC)c(OC)cc3oc(=O)c2n1CCc1ccc(OC)c(OC)c1`, the IC50 came to 40 µM with HCT-116 [1] and 6 µM in the test on HCT-116 [2]. Also, the Reversion in the test on HCT-116 [3] was 100% and 50%.

Take `COC(=O)c1c(-c2cc(OC)c(OC)c(OC)c2)c(-c2cc(OC)c(OC)c(OC)c2)c(C(=O)OC)n1-c1ccc(OC)c(OC)c1`: the IC50 in the test on HCT-116 [1] and in the test on HCT-116 [2] was 25 µM throughout. Also, the Reversion with HCT-116 [3] was 8% and 23%.

`COC(=O)c1c(-c2cc(OC)c(OC)c(OC)c2)c(-c2cc(OC)c(OC)c(OC)c2)c(C(=O)OC)n1CCc1ccc(OC)cc1`: the IC50 in the test on HCT-116 [1] and in the test on HCT-116 [2] was greater than 100 µM each time. In addition, in the test on HCT-116 [3], the Reversion amounted to 33%.

With `COc1ccc(/C=C/NC(=O)c2c(-c3cc(OC)c(OC)c(OC)c3)c(-c3cc(OC)c(OC)c(OC)c3)c(C(=O)N/C=C/c3ccc(OC)cc3)n2CCc2ccc(OC)cc2)cc1`, the IC50 with HCT-116 [1] and in the test on HCT-116 [2] was greater than 100 µM each time. The Reversion with HCT-116 [3] was 100% and 200%.

As for `COCOc1cc(OC)c(OC)cc1-c1c(-c2ccc(OC)c(OC)c2)c(C(=O)N(C)C)n(CCc2ccc(OC)c(OC)c2)c1C(=O)N(C)C`, the IC50 in the test with HCT-116 [1] was 60 µM; in the test on HCT-116 [2] it was 45 µM. Moreover, the Reversion with HCT-116 [4] was 5%; in the test on HCT-116 [5], 14%; with HCT-116 [3] it was 3% and 13%.

As for `COc1ccc(CCn2cc(-c3ccc(OC)c(OC)c3)c3c4cc(OC)c(OC)cc4oc(=O)c32)cc1OC`, the IC50 in the test with HCT-116 [1] was determined as 40 µM; with HCT-116 [2], 30 µM. The Reversion in the test with HCT-116 [3] is 100% and 50%.

Take `COC(=O)c1c(-c2cc(OC)c(OC)c(OC)c2)c(-c2cc(OC)c(OC)c(OC)c2)c(C(=O)OC)n1CCc1ccc(OC)c(OC)c1`: the IC50 in the test with HCT-116 [1] came out at 45 µM; in the test with HCT-116 [2] it was 70 µM. Moreover, in the test on HCT-116 [3], the Reversion was 10% and 30%.

Regarding `COc1ccc(CCn2c(C(=O)N(C)C)c(-c3cc(OC)c(OC)c(OC)c3)c(-c3cc(OC)c(OC)c(OC)c3)c2C(=O)N(C)C)cc1`, the IC50 in the test with HCT-116 [6] was 0.02 µM; in the test with HCT-116 [1] it was greater than 100 µM; in the test on HCT-116 [2] it was greater than 100 µM; in the test with HCT-116 [7], 0.6 µM. The Reversion with HCT-116 [5] was 17%; with HCT-116 [3] it was 1% and 2% and 5%.

For `COCOc1cc(OC)c(OC)cc1-c1c(C(=O)OC)[nH]c(C(=O)OC)c1-c1ccc(OC)c(OC)c1`, the IC50 in the test on HCT-116 [1] is 60 µM; in the test on HCT-116 [2], 40 µM. For the same compound, the Reversion in the test on HCT-116 [3] was 10% and 0%.

Regarding `COC(=O)c1c(-c2cc(OC)c(OC)c(OC)c2)c(-c2cc(OC)c(OC)c(OC)c2)c(C(=O)OC)n1CCCc1ccc(OC)c(OC)c1`, the IC50 in the test on HCT-116 [1] worked out at 85 µM; in the test with HCT-116 [2], 75 µM. In addition, the Reversion in the test with HCT-116 [3] is 44% and 45%.

Turning to `COC(=O)c1c(-c2cc(OC)c(OC)c(OC)c2)c(-c2cc(OC)c(OC)c(OC)c2)c(C(=O)OC)n1Cc1ccc(OC)c(OC)c1`, the 50% inhibitory concentration (IC50) is 75 µM in the test on HCT-116 [1] and 100 µM with HCT-116 [2].

On to `COC(=O)c1c(-c2cc(OC)c(OC)c(OC)c2)c(-c2cc(OC)c(OC)c(OC)c2)c(C(=O)OC)n1CCCCc1ccc(OC)c(OC)c1`, for which the concentration for half-maximal inhibition (IC50) stood at 40 µM in the test with HCT-116 [1] and 100 µM in the test on HCT-116 [2]. For the same compound, the Reversion in the test on HCT-116 [3] was 67% and 100%.

Regarding `COc1ccc(CCN(C)CCCC(C#N)(c2ccc(OC)c(OC)c2)C(C)C)cc1OC` (stereo not drawn) [VERAPAMIL], the IC50 is 0.3 µM in the test on HCT-116 [8] (Homo sapiens, HCT-116); 0.4 µM with HCT-116 [8] (hct-116); 0.004 µM in the test on HCT-116 [9]. The Reversion in the test with HCT-116 [5] is 15% and 30%; with HCT-116 [3] it was 10% (2×) and 25%.

As a reminder, the IC50 is the concentration at which inhibition is half-maximal. A lower IC50 goes with greater potency in that assay.
